According to patent US20100255070A1, “COMPOSITIONS AND METHODS FOR PREVENTING, MINIMIZING AND HEALING SKIN IRRITATION AND TRAUMA” (PRELIEF INC., priority 2007, published 2010):

Assay: Water solubility of the components of the preferred aqueous composition
Format: physicochemical
Settings: component of the preferred aqueous composition
Description: The film-forming component is designed to be insoluble so that it will form a film on the skin.

OCC(O)CO [Glycerin]
Water Solubility: S
